The subject of data set [1] is A. baumannii MABA 0001. In words: In vitro antibacterial activity (MIC), A. baumannii. To be noted: Acinetobacter baumannii, MABA0001. The format is cell-based. An excerpt: (§1) The in vitro activity of compounds described herein may be assessed by standard testing procedures such as the determination of minimum inhibitory concentration (MIC) as described in Approved Standard. Methods for Dilution Antimicrobial Susceptibility Tests for Bacteria that Grow Aerobically, 3rd ed., 1993, published by the National Committee for Clinical Laboratory standards, Villanova, Pennsylvania, USA. Low MIC values indicate high antibacterial activity, while high MIC values reveal a reduced antibacterial activity (with higher drug concentration required for pathogen eradication in the latter instance). Generally, MIC values of about ≤4-8 μg/mL indicate a therapeutic (i.e. suitable for therapy) potency for antibacterial drugs, while MIC values of ≥16 μg/mL indicate a lack of therapeutically useful activity for a test compound.

Data set [2] deals with K. pneumoniae ATCC10031. Briefly: In vitro antibacterial activity (MIC), K. pneumoniae. Particulars: Klebsiella pneumoniae. The class given is cell-based.
Excerpt: as §1

Data set [3] is described as follows: Lung vs. plasma distribution study in mice. The class given is in vivo. To be noted: Balb/C mouse.
Data set [4] concerns Pseudomonas aeruginosa WPAE 1004. In words: Pseudomonas aeruginosa mouse lung infection model. Particulars: ICR mouse, po 10 mg/kg once daily; for WPAE 1004, Lg (CFU/lung) 24 h: oral suspension; for Δ 24 h (Control-Theray), log reduction of CFU in lung: vs untreated control. The class given is in vivo. Here is the method: To establish the efficacy of the compounds described herein in vivo, a Pseudomonas aeruginosa mouse lung infection model was performed by administering test compounds analogously to the method described in Andes et al. in Antimicrobial Agents and Chemotherapy, 2002, 46(11), 3484-3489. In this model, a greater reduction in the bacterial colony-forming units (CFU) indicates more beneficial therapeutic effect (more bacterial eradication), while a lower CFU reduction indicates a lower effect (less bacterial eradication). The in vivo antibacterial effect is also referred to as “efficacy”, in contrast to the term “potency,” which is commonly used for in vitro activity (expressed as MIC).
In the Pseudomonas aeruginosa ICR mouse (The mice were randomly divided into groups with 6 mice in each group) lung infection, reference Example 5 was administered orally at 10 mg/kg once daily. […] As a prodrug for oral administration, the compound of Example 2 and 8 were also given by oral gavage at 10 mg/kg once daily. […] The data is strongly supportive of the prodrug of Example 2 and 8 being converted to reference compound of Example 5 after oral administration to exert the antibacterial activity. The data also supports a high conversion rate.

For data set [5], the system named is Gram-negative bacteria, including Pseudomonas aeruginosa, Acinetobacter baumannii, Escherichia coli, and Klebsiella pneumoniae. Briefly: In vitro antibacterial activity (MIC), summary over Gram-negative bacteria. The class given is cell-based. Particulars: for in vitro antibacterial activity in words: prodrugs of Example 5, Table 1 data.
Excerpt: as §1

Data set [6] deals with P. aeruginosa PAE 1001. Briefly: In vitro antibacterial activity (MIC), P. aeruginosa. The format is cell-based. To be noted: Pseudomonas aeruginosa, PAE1001.
Excerpt: as §1

Data set [7] is described as follows: Pharmacokinetic study in rat (iv or oral gavage). The format is in vivo, SD rats. To be noted: SD rat; for AUC compared with that of Example 5, in words: oral. An excerpt:
To further elucidate therapeutic potential of drug compounds, pharmacokinetic (PK) data is used to establish the key parameters predictive of the therapy outcome, such as area under the curve (AUC) for a plot monitoring the change in the systemic drug concentration over time. Thus, a higher AUC value indicates a greater exposure to the drug, commonly associated with a greater therapeutic potential due to a higher amount of drug available to combat the infection in a mammal. In contrast, a lower AUC value indicates a reduced exposure to the drug under study, resulting in a reduced amount of antibiotic available to combat bacterial infestations. To that end, the compounds described herein were tested in a rat PK model of oral administration performed analogously to methods described in the monograph Current Protocols in Pharmacology, 2005, 7.1.1-7.1.26, John Wiley & Sons, Inc.
All the compounds were administered to SD rats (The rats were randomly divided into groups with 3 rats in each group) by intravenous (iv) or oral gavage. Since the prodrugs are expected to convert to the parent molecule in vivo, only the parent compound (the compound of Example 5) was tested for all samples. […] This low bioavailability as well as low exposure (AUC) and C max make it inappropriate for development as oral drug. […] Because the prodrugs usually have larger molecular weight due to the introduction of prodrug substructures, the AUC is corrected by dose and molecular weight (MW) to give AUC per mole, to compare the efficiency among the prodrugs.

Data set [8] concerns E. coli MECO 002. Briefly: In vitro antibacterial activity (MIC), E. coli. The class given is cell-based. To be noted: Escherichia coli, MECO002.
Excerpt: as §1

[9] abbreviates: in vivo, iv 5 mg/kg, parent compound (Example 5) measured.

Where two headings read alike, the source gives them in different places.

As usually defined, the MIC is the least concentration at which growth counts as inhibited. The AUC is the area under the concentration-time curve, a measure of exposure. As a reminder, the Cmax is the peak of the concentration-time curve. On to `Cl.NC[C@H]1OB2O[C@H](CO)COC3C=CC=C1C23` (stereo partly drawn) [Example 5, [(2S,6R)-2-(aminomethyl)-4-bora-3,5,8-trioxatricyclo[7.3.1.04,13]trideca-1(12),10-dien-6-yl]methanol hydrochloride, reference compound], for which the minimal inhibitory concentration (MIC) is 2 mg/L in data set [1], 4 mg/L in data set [2], 2 mg/L in data set [6] and 2 mg/L in data set [8]. In addition, in data set [3] (Example 5 10 mg/kg iv, levels for Example 5), the “AUClast, lung” value is 12822 ng·h/g. In addition, in data set [3] (lung/plasma, Example 5 10 mg/kg iv, levels for Example 5, read-out: AUC ratio (lung/plasma)), the Kp was 2.39. Also, the half-life in data set [3] (lung, Example 5 10 mg/kg iv, levels for Example 5, read-out: t1/2, lung (converted)) was 1.46 h; in data set [3] (plasma, Example 5 10 mg/kg iv, levels for Example 5, read-out: t1/2, plasma (converted)), 1.87 h. Further, in data set [3] (plasma, Example 5 10 mg/kg iv, levels for Example 5, read-out: AUClast, plasma), the AUC(0-t) amounted to 5.36 µg·h/mL. In addition, in data set [4], the “WPAE 1004, Lg (CFU/lung) 24 h” value was 8.56 ± 0.49 Lg (CFU/lung). The “Δ 24 h (Control-Theray), log reduction of CFU in lung” value in data set [4] is on record as 0.53 Lg (CFU/lung). Also, in data set [5] (range over the four strains of Table 1), the “MIC range against Gram-negative bacteria” value is 2 to 4 mg/L. Further, the AUC in data set [7] (setting [9]) is 5.66 µg·h/mL. Also, the Cmax in data set [7] (setting [9]) turned out to be 6.78 µg/mL.

For the compound `CC(=O)OC[C@@H]1COc2cccc3c2B(O1)O[C@@H]3CN.Cl` [Example 7, [(2S,6S)-2-(aminomethyl)-4-bora-3,5,8-trioxatricyclo[7.3.1.04,13]trideca-1(12),9(13),10-trien-6-yl]methyl acetate hydrogen chloride], the “AUC compared with that of Example 5, in words” value (“AUC compared with that” below) in data set [7] is “significantly higher”.

For `CC(C)C(=O)OC[C@@H]1COc2cccc3c2B(O1)O[C@@H]3CN.Cl` [Example 4, [(2S,6S)-2-(aminomethyl)-4-bora-3,5,8-trioxatricyclo[7.3.1.04,13]trideca-1(12),9(13),10-trien-6-yl]methyl 2-methylpropanoate hydrogen chloride], the minimal inhibitory concentration (MIC) in data set [1], in data set [2], in data set [6] and in data set [8] was above 32 mg/L in each case. Moreover, the “in vitro antibacterial activity in words” value in data set [5] is “inactive”. In data set [7], the “AUC compared with that” value is “significantly higher”.

As for `CC(C)(C)C(=O)OC[C@H](COc1cccc2c1B(O)O[C@@H]2CN)OC(=O)C(C)(C)C.Cl` [Example 3, (2S)-3-[(2,2-dimethylpropanoyl)oxy]-1-{[(3S)-3-(aminomethyl)-1-hydroxy-1,3-dihydrobenzo[2,1-c][1,2]oxaborol-7-yl]oxy}propan-2-yl 2,2-dimethylpropanoate hydrochloride], the MIC in data set [1], in data set [2], in data set [6] and in data set [8] was above 32 mg/L in each case. Besides, in data set [5], the “in vitro antibacterial activity in words” value is “inactive”. Further, the “AUC compared with that” value in data set [7] is given as “significantly higher”.

With `CC(=O)OC[C@H](COc1cccc2c1B(O)O[C@@H]2CN)OC(C)=O.Cl` [Example 1, (2S)-3-acetoxy-1-{[(3S)-3-(aminomethyl)-1-hydroxy-1,3-dihydrobenzo[2,1-c][1,2]oxaborol-7-yl]oxy}propan-2-yl acetate hydrochloride], the MIC in data set [1], in data set [2], in data set [6] and in data set [8] was above 32 mg/L in each case. Besides, the “AUC compared with that” value in data set [7] is “significantly higher”.

Turning to `CC(C)C(=O)OC[C@H](COc1cccc2c1B(O)O[C@@H]2CN)OC(=O)C(C)C.Cl` [Example 2, (2S)-1-{[(3S)-3-(aminomethyl)-1-hydroxy-1,3-dihydrobenzo[2,1-c][1,2]oxaborol-7-yl]oxy}-3-[(2-methylpropanoyl)oxy]propan-2-yl 2-methylpropanoate hydrochloride], the MIC in data set [1], in data set [2], in data set [6] and in data set [8] was above 32 mg/L each time. In addition, the “AUClast, lung” value in data set [3] (Example 2 10 mg/kg po, levels for Example 2) was found to be 968 ng·h/g; in data set [3] (Example 2 10 mg/kg po, levels for Example 5), 23589 ng·h/g. Further, the “WPAE 1004, Lg (CFU/lung) 24 h” value in data set [4] was 7.50 ± 0.73 Lg (CFU/lung). Further, the “Δ 24 h (Control-Theray), log reduction of CFU in lung” value in data set [4] is given as 1.77 Lg (CFU/lung). Also, the “in vitro antibacterial activity in words” value in data set [5] is “inactive”. In addition, the “AUC compared with that” value in data set [7] is “significantly higher”.

As to `CCC(=O)OC[C@@H]1COc2cccc3c2B(O1)O[C@@H]3CN.Cl` [Example 8, [(2S,6S)-2-(aminomethyl)-4-bora-3,5,8-trioxatricyclo[7.3.1.04,13]trideca-1(12),9(13),10-trien-6-yl]methyl propanoate hydrogen chloride], the MIC in data set [1], in data set [2], in data set [6] and in data set [8] was above 32 mg/L each time. The “WPAE 1004, Lg (CFU/lung) 24 h” value in data set [4] is listed as 8.45 ± 0.64 Lg (CFU/lung). The “Δ 24 h (Control-Theray), log reduction of CFU in lung” value in data set [4] is reported as 0.82 Lg (CFU/lung). Further, in data set [5], the “in vitro antibacterial activity in words” value was “inactive”. Besides, in data set [7], the “AUC compared with that” value was “significantly higher”.

With `CCC(=O)OC[C@H](COc1cccc2c1B(O)O[C@@H]2CN)OC(=O)CC.Cl` [Example 6], in data set [7], the “AUC compared with that” value is reported as “significantly higher”.

These data come from patent US20240279247A1, “PRODRUGS OF BORON COMPOUNDS AND THEIR USE IN TREATING BACTERIAL INFECTIONS” (priority 2022, published 2024).
